Columns and labels:
C3H/10T1/2 cells [1] = assay: Anti-apoptotic activity assay: serum deprivation of C3H/10T1/2 cells; type: cell-based; settings: for Concentration for Max Effect / Maximum effect relative to 18:1 LPA / Emax: serum-deprived C3H/10T1/2 cells, 24 hours of treatment; for Emax: Mus musculus, read-out: Maximum effect relative to 18:1 LPA; for Maximum effect relative to 18:1 LPA: Toxic / lowest concentration at which cytotoxic effects were observed (column Concentration for Max Effect): C3H/10T1/2 cells; for lowest concentration at which cytotoxic effects were observed (column Concentration for Max Effect): compounds exhibiting toxicity
From the text: In order to determine the […] of the claimed invention, the following method of analysis was used. The cell assay is described in detail in U.S. Pat. Nos. 5,637,486, 5,620,888, and 5,681,703, and Tomei et al. (1993) Proc Natl. Aci. 90:853-857. Briefly, mouse fibroblast C3H/10T1/2 cells (clone 8) were obtained from ATCC (Rockville, Md.) and were maintained in exponential growth phase in which the cell cycle is randomly distributed and no cells are arrested in G0, and in quiescence. Exponential growth phase was assured by seeding at 2000 cells per 1 ml (5 ml for 60 mm culture plate) five days prior to the beginning of the experiment. Assays were performed on cells only up to passage 15. At T=0, cultures were transferred to serum-free medium, as an appropriate stimulus, and seed extracts were added. Controls included 10^−7 and 5×10^−8 M 12-O-tetradecanoyl phorbol-13-acetate (TPA) to ensure the responsiveness of the cell culture. The samples were added to serum free medium and sterile filtered prior to addition to the cultures. Assays were performed in triplicate or quadruplicate. Analyses of the cell responses were made between 18 and 28 hours of serum deprivation. Two assays were performed on each cell culture plate consisting of differential cell counts.
1. All non-adherent or loosely adherent cells were removed from the culture dish and counted by appropriate techniques, typically counting by electronic particle counting instrument. These are the apoptotic cells, the serum deprived released cells (SDR), released by the action of cultivation in serum-free medium. Approximately 95% of these released cells are apoptotic as shown by both ultrastructure analysis and DNA fragmentation analysis.
2. The remaining adherent cells (ADH) were exposed to a buffered, typically pH 7.3, balanced salt solution such as a Hanks Balanced Salt Solution without calcium and magnesium salts containing 0.05% trypsin and 0.53 mM ethylene diaminetetraacetic acid (EDTA). Each culture was incubated at either room temperature or 37(C on a rocking platform to ensure uniform distribution of the trypsin reagent over the culture surface. After a standardized period of time, typically 10 minutes, the released cells were removed from each culture dish and measured by the same means as described above, typically electronic particle counting. This ADH cell count is comprised of both trypsin resistant and trypsin sensitive cells as described in U.S. Pat. Nos. 5,637,486, 5,620,888, and 5,681,703.
Anti-apoptotic activity is expressed in the following examples as the calculated concentration of material ((g/ml of media) required to save 50% of the cells released on serum free treatment.
The ability of 18:1-LPA an other LPAs to protect serum-starved cells from apoptotic death was measured using the C3H/10T1/2 cell assay, performed as described in Example 2. The effect of various compounds on the ability of lysophosphatidic acid to protect serum-starved cells from apoptotic death was also measured. Log phase cells were seeded in 60 mm Petri dishes at 175-350 cells per cm2 and maintained in Basal Medium Eagle (BME) supplemented with 10% Heat Inactivated Fetal Bovine Serum (HIFBS). On day 3 the cells were given fresh media. Treatment began on day 5 when the media containing serum was removed and replaced with the LPA mixture to be tested. After 24 hours of treatment, day 6, serum deprived released (SDR) cells (the […] cell population) and adherent (ADH) cells were separated and counted using an electronic cell counter (Coulter Corporation, Hialea, Fla.). […]

C3H/10T1/2 cells [2] = assay: Effect of proteins on anti-apoptotic activity of soy LPA, C3H/10T1/2 cell assay; type: cell-based; settings: for Protein +10 (g/mL Soy LPA, percent cells saved from apoptosis): 1:10 soy-LPA to protein (weight:weight); for Protein +10 (g/mL Soy LPA, percent cells saved from apoptosis) / Protein Alone (0.01%), percent cells saved from apoptosis: 24 hours serum deprivation; for Increase with LPA: difference protein + soy LPA minus protein alone; for Protein Alone (0.01%), percent cells saved from apoptosis: protein without LPA; for enhancement of the anti-apoptotic activity of soy-LPA (more than additive protection): soy-LPA added together with protein
Description: Soy derived LPA (soy-LPA) (Avanti® Polar Lipids, Inc., Alabaster, Ala.) was stored in an organic solution and was dried immediately prior to assay using a Speed Vac (Savant Instruments, Hicksville, N.Y.). Tested proteins were resuspended at 10_mg/mL in a bicarbonate buffered saline/EDTA solution (50_mM NH4HCO3, […] NaCl, 250_(M EDTA) prior to being added to dried soy-LPA at a 1:10_soy-LPA to protein (weight:weight) ratio. The mixture was then sonicated for 5 minutes using a high power 80 Watt sonication bath (Laboratory Supplies Co., Hicksville, N.Y.). Following sonication, concentrated LPA/protein mixtures were left standing for 15 minutes at room temperature prior to dilution in cell culture assay media.
The effect of various proteins on the ability of LPA to protect serum-starved cells from apoptotic death was measured using the C3H/10T1/2 cell assay, performed as described in Example 2, above. Log phase cells were seeded in 60 mm Petri dishes at 175-350 cells per cm^2 and maintained in Basal Medium Eagle (BME) supplemented with 10% fetal calf serum (Hyclone, Logan, Utah). At time zero, serum containing media was replaced with sterile filtered BME containing the LPA/protein mixture to be tested. After 24 hours of treatment, serum deprived release (SDR) cells (the apoptotic cell population) and adherent (ADH) cells were separated and counted using an electronic cell counter (Coulter Corporation, Hialea, Fla.). SDR cells were counted with the lower threshold setting at 6.3_(m and were defined as the apoptotic cells dying in response to cultivation in serum-free-media. Approximately 95% of the SDR cells are confirmed to be apoptotic as previously shown by size, ultrastructure and DNA fragmentation analysis. Adherent cells were removed by treatment with a Hanks' balanced salt solution containing 0.05% trypsin and 0.53_mM EDTA and were counted with the lower threshold setting at 11.01_(m. All samples were tested in triplicate and serum-deprived controls (BME only) were assayed at both the beginning and end of each experiment.

CCCCCCCCCCCCCCCCCC(=O)OCC(O)COP(=O)(O)O (centres unmarked) [stearyl-LPA, reference compound] gave a cells protected (C3H/10T1/2 cells [1]; 5 (M, FIG. 6)) of 63% and a cells protected (C3H/10T1/2 cells [1]; 15 (M, FIG. 6)) of 65%.

In the case of CCCCCCCC/C=C\CCCCCCCCOCC(COP(=O)(OC)OC)OC (racemic) [Compound 23, Dimethyl 1-O-oleyl-2-O-methyl-rac-glycero-1-phosphate], the “Concentration for Max Effect” value (C3H/10T1/2 cells [1]) is reported as 30 µM and the “Maximum effect relative to 18:1 LPA” value (C3H/10T1/2 cells [1]) is reported as 17%.

In the case of phosphatidyl choline [PC], the cells survived (C3H/10T1/2 cells [1]; lipids alone added to culture medium, FIG. 3) is reported as “about 25%”.

With CCCCCCCC/C=C\CCCCCCCC(=O)OCC(COP(=O)(O)O)OC (racemic) [Compound 46, 3-O-Oleoyl-2-O-methyl-rac-glycero-1-phosphate] the Emax (C3H/10T1/2 cells [1]) was 75% and the “Concentration for Max Effect” value (C3H/10T1/2 cells [1]) was 30 µM.

In the case of CCCCCCCCCCCCCCOCC(O)COP(=O)(OC)OC (racemic) [Compound 3, Dimethyl 3-O-tetradecyl-rac-glycero-1-phosphate], the “Maximum effect relative to 18:1 LPA: Toxic” value (C3H/10T1/2 cells [1]) is reported as “Toxic” and the “lowest concentration at which cytotoxic effects were observed (column Concentration for Max Effect)” value (“lowest concentration” below) (C3H/10T1/2 cells [1]) is reported as 30 µM.

For CCCCCCCCCCCCCCOCC1CO1 (centres unmarked) [Compound 8, 1-O-Tetradecyl-glycidol], the “Maximum effect relative to 18:1 LPA: Toxic” value (C3H/10T1/2 cells [1]) was “Toxic” and the “lowest concentration” value (C3H/10T1/2 cells [1]) was 30 µM.

With CCCCCCCC/C=C\CCCCCCCCOCC(COP(O)(=S)OCC(COCCCCCCCC/C=C\CCCCCCCC)OC)OC (racemic) [Compound 80, Bis(3-O-oleyl-2-O-methyl-rac-glyceryl)thiophosphate] the “Concentration for Max Effect” value (C3H/10T1/2 cells [1]) was 3 µM and the “Maximum effect relative to 18:1 LPA” value (C3H/10T1/2 cells [1]) was 100%.

For Casein, the “Protein +10 (g/mL Soy LPA, percent cells saved from apoptosis)” value (C3H/10T1/2 cells [2]) was 84.3%, the “Increase with LPA” value (C3H/10T1/2 cells [2]) was “+20.9%” and the “Protein Alone (0.01%), percent cells saved from apoptosis” value (C3H/10T1/2 cells [2]) was 63.4%. For the same molecule, the “enhancement of the anti-apoptotic activity of soy-LPA (more than additive protection)” value (from here on “enhancement”) (C3H/10T1/2 cells [2]) was “to a lesser degree”.

With CCCCCCCC/C=C\CCCCCCCC(=O)NC(C)COP(=O)(O)O (centres unmarked) [Compound 61, 2-Amino-2-N-oleoyl-propyl phosphate] the “Concentration for Max Effect” value (C3H/10T1/2 cells [1]) was 30 µM and the “Maximum effect relative to 18:1 LPA” value (C3H/10T1/2 cells [1]) was 70%.

With “lysophosphatidyl serine [LPS, reference compound]” the “activity relative to 18:1-LPA” value (C3H/10T1/2 cells [1]; on a molar basis, FIG. 4) was “approximately 50%”.

With CCCCCCCCCCCCCCCC(=O)OCC(O)COP(=O)(O)O (centres unmarked) [16:0 LPA, Palmitoyl-LPA, reference compound] the cells protected (C3H/10T1/2 cells [1]; 5 (M, FIG. 5), medium alone 30%) was “about 42%”, the cells protected (C3H/10T1/2 cells [1]; 15 (M, FIG. 5)) was 63% and the “Concentration for Max Effect” value (C3H/10T1/2 cells [1]) was 10 µM. For the same molecule, the “Maximum effect relative to 18:1 LPA” value (C3H/10T1/2 cells [1]) was 80%.

“Dimethyl 3-amino-N-oleoyl-propylphosphate [Compound 53]” was tested, and the “Maximum effect relative to 18:1 LPA: Toxic” value (C3H/10T1/2 cells [1]) was “Toxic” and the “lowest concentration” value (C3H/10T1/2 cells [1]) was 100 µM.

For Myelin Basic Protein, the “Protein +10 (g/mL Soy LPA, percent cells saved from apoptosis)” value (C3H/10T1/2 cells [2]) was 17.0%, the “Increase with LPA” value (C3H/10T1/2 cells [2]) was “+0.2%” and the “Protein Alone (0.01%), percent cells saved from apoptosis” value (C3H/10T1/2 cells [2]) was 16.8%. The “enhancement” value (C3H/10T1/2 cells [2]) was “did not enhance”.

CCCCCCCC/C=C\CCCCCCCCCCCCOP(=O)(O)O [Compound 71, Erucyl phosphate] was tested, and the “Concentration for Max Effect” value (C3H/10T1/2 cells [1]) was 100 µM and the “Maximum effect relative to 18:1 LPA” value (C3H/10T1/2 cells [1]) was 76%.

With CCCCCCCCCCCCCC(=O)OC[C@@H](O)COP(=O)(O)O [14:0 LPA, reference compound] the “Concentration for Max Effect” value (C3H/10T1/2 cells [1]) was 30 µM and the “Maximum effect relative to 18:1 LPA” value (C3H/10T1/2 cells [1]) was 80%.

In the case of CCCCCCCC/C=C\CCCCCCCC(=O)OCC(Br)COP(=O)(O)O (racemic) [Compound 37, 3-O-Oleoyl-2-deoxy-2-bromo-rac-glycero-1-phosphate], the “Concentration for Max Effect” value (C3H/10T1/2 cells [1]) is reported as 30 µM and the “Maximum effect relative to 18:1 LPA” value (C3H/10T1/2 cells [1]) is reported as 75%.

CCCCCCCC/C=C\CCCCCCCCOCC(COP(=O)(O)O)OC (racemic) [Compound 24, 3-O-Oleyl-2-O-methyl-rac-glycero-1-phosphate] was tested, and the Emax (C3H/10T1/2 cells [1]) was 100% and the “Concentration for Max Effect” value (C3H/10T1/2 cells [1]) was 10 µM.

With CCCCCCCCCC(=O)OC[C@@H](O)COP(=O)(O)O [10:0 LPA, reference compound] the “Concentration for Max Effect” value (C3H/10T1/2 cells [1]) was 30 µM and the “Maximum effect relative to 18:1 LPA” value (C3H/10T1/2 cells [1]) was 30%.

“Phosphatidylserine [Phosphatidylserine (PS)]” was tested, and the “toxicity of lipid alone” value (C3H/10T1/2 cells [1]; PS alone, FIG. 2) was “slightly toxic”.

For CCCCCCCC/C=C\CCCCCCCC(=O)NCCOP(=O)(OC)OC [Compound 59, Dimethyl 2-amino-2-N-oleoyl-ethylphopshate], the “Maximum effect relative to 18:1 LPA: Toxic” value (C3H/10T1/2 cells [1]) was “Toxic” and the “lowest concentration” value (C3H/10T1/2 cells [1]) was 30 µM.

B1: Myoglobin: myoglobin from horse heart (protein, UniProt P68082 2-154, looked up)
Myoglobin: GLSDGEWQQVLNVWGKVEADIAGHGQEVLIRLFTGHPETLEKFDKFKHLKTEAEMKASEDLKKHGTVVLTALGGILKKKGHHEAELKPLAQSHATKHKIPIKYLEFISDAIIHVLHSKHPGDFGADAQGAMTKALELFRNDIAAKYKELGFQG
For B1, the “Protein +10 (g/mL Soy LPA, percent cells saved from apoptosis)” value (C3H/10T1/2 cells [2]) was 27.8%, the “Increase with LPA” value (C3H/10T1/2 cells [2]) was “+18.5%” and the “Protein Alone (0.01%), percent cells saved from apoptosis” value (C3H/10T1/2 cells [2]) was 9.3%. For the same molecule, the “enhancement” value (C3H/10T1/2 cells [2]) was “to a lesser degree”.
